According to patent publication US8962842B2, “2-pyridone antimicrobial compositions” (priority 2010, dated 2015):
Where two headings read alike, the source gives them in different places.

Experiment: Mouse pharmacokinetics, intravenous or oral 10 mg/kg (Table 9)
Assay type: in vivo
Settings: mice, plasma; for half-life: read-out: Elimination Half life (converted); for bioavailability: p.o. vs i.v.
Method: Groups of 21 mice were treated with select examples at 10 mg/kg. Mice were treated either intravenously or orally (by gavage). At predetermined time points (0.25, 0.5, 1, 2, 4, 8 and 24 hours), 3 mice were sacrificed and blood samples drawn by cardiac puncture. Plasma was obtained by centrifugation and stored at −80° C. Plasma samples were analyzed by LC-MS for remaining amounts of compounds.

`Cc1c(-c2ccc(N)c(F)c2)ccn2c(=O)c(C(=O)[O-])cc(C3CC3)c12.[K+]` [Ex. 2 K salt] gave a half-life (iv, i.v.) of 1.48 h, an AUC(0-inf) (iv) of 1340 ng·h/mL and a Cmax (iv) of 2100 ng/mL. The bioavailability (po) was 47.8%, the half-life (po, p.o.) was 1.51 h and the AUC(0-inf) (po) was 642 ng·h/mL. For the same compound, the Cmax (po) was 394 ng/mL.
`Cc1c(-c2ccc(N)nc2)ccn2c(=O)c(C(=O)[O-])cc(C3CC3)c12.[K+]` [Ex. 21 K salt] showed a half-life (iv, i.v.) of 1.31 h, a Cmax (iv) of 467 ng/mL and a half-life (po, p.o.) of 2.11 h. The AUC(0-inf) (po) was 471 ng·h/mL and the Cmax (po) was 242 ng/mL.
In the case of `Cc1c(-c2ccc3[nH]ncc3c2)ccn2c(=O)c(C(=O)[O-])cc(C3CC3)c12.[K+]` [Ex. 23 K salt], the half-life (iv, i.v.) is reported as 1.16 h, the AUC(0-inf) (iv) is reported as 2040 ng·h/mL and the Cmax (iv) is reported as 3430 ng/mL. For the same compound, the bioavailability (po) was 85.9%, the half-life (po, p.o.) was 0.988 h and the AUC(0-inf) (po) was 1750 ng·h/mL. The Cmax (po) was 866 ng/mL.
In the case of `Cc1c(-c2cc(F)c(N)cc2F)ccn2c(=O)c(C(=O)[O-])cc(C3CC3)c12.[K+]` [Ex. 28 K salt], the half-life (iv, i.v.) is reported as 1.07 h, the AUC(0-inf) (iv) is reported as 1650 ng·h/mL and the Cmax (iv) is reported as 2850 ng/mL. The bioavailability (po) was 43%, the half-life (po, p.o.) was 3.33 h and the AUC(0-inf) (po) was 710 ng·h/mL. For the same compound, the Cmax (po) was 227 ng/mL.
With `Cc1c(-c2ccc(O)cc2)ccn2c(=O)c(C(=O)[O-])cc(C3CC3)c12.[K+]` [Ex. 46 K salt] the half-life (iv, i.v.) was 1.07 h, the AUC(0-inf) (iv) was 474 ng·h/mL and the Cmax (iv) was 1060 ng/mL. The bioavailability (po) was 82.1%, the half-life (po, p.o.) was 4.16 h and the AUC(0-inf) (po) was 389 ng·h/mL. The Cmax (po) was 156 ng/mL.
